Assay results reported in article PMC13183915, “A platinum butterfly effect: small changes turn an anticancer drug into a non-toxic metalloantibiotic with in vivo efficacy” (npj Antimicrobials and Resistance, 2026).
“And” between values parts separate entries of the source, which are not always exact repeats. Equal entries are not always repeated. Where two headings read alike, the source gives them in different places.

Key:
E. coli lpxC = settings: lipid A biosynthesis-impaired mutant; cited from earlier work
[1] = system: human red blood cells (RBC); test: Hemolysis assay in hRBCs; assay type: cell-based; settings: 4 hours at 20 °C
[2] = system: methicillin-sensitive Staphylococcus aureus (MSSA), clinical isolate; test: MIC assay, MSSA clinical isolate; assay type: cell-based; settings: MSSA clinical isolate
B. subtilis 168CA [3] = test: ROS scavenger assay (modified MIC assay); assay type: cell-based, Bacillus subtilis
Experimental: LB media were prepared to contain either 10 mM tiron, 150 mM thiourea, 10 mM tiron and 150 mM thiourea, or no […]. Serial two-fold dilutions of the different antibiotics were prepared in the respective media and transferred to 96-well plates. […] The OD600 was meassured in a BMG Clariostar Plus plate reader.

[4] = system: MreB (B. subtilis MW10, Pxyl-gfp-mreB); test: MreB mobility (cell wall synthesis reporter); assay type: cell-based, Bacillus subtilis; settings: 3.12 µM Pt1, 25 µM Pt8; 30 and 60 min
Experimental: (§1) B. subtilis strains were grown in LB containing appropriate inducer concentrations as specified in Table S10. After reaching an OD600 of 0.3, cultures were split and treated with antibiotics. Samples were withdrawn after 30 and 60 min of treatment, spotted on glass slides covered with 1% agarose films, and immediately imaged.
Figure S7: Fluorescence overlays of B. subtilis MW10 (Pxyl-gfp-mreB). Cultures were treated […]
overlays of two consecutive images captured from the same cells in a 30-second interval.
Images were false-colored in blue and orange with overlapping signal appearing white. Distinct blue and orange spots indicate movement of MreB foci. Entirely white images indicate a stop of MreB moility (vancomycin control). Scale bar 2 µm.
(§2) (1 picture or pasted object on this page, not shown here)

VRSA VRS 12 = test: Broth microdilution MIC, VRSA VRS 12; assay type: cell-based, S. aureus; settings: VRSA VRS 12
Experimental: (§3) The data is given in supporting information (Table S5). Before starting the experiment, a single colony was picked from MHA plate, inoculated in MHBII and incubated overnight at 37 °C with shaking for 18–24 h to get the starter culture. Antibiotic susceptibility testing was conducted according to the CLSI (Clinical & Laboratory Standards Institute) guidelines using the broth microdilution assay. 10 mg/mL stock solutions of test compounds were prepared in DMSO. Bacterial cultures were inoculated in MHBII and optical density (OD) was measured at 600 nm, followed by dilution to achieve ~10^6 CFU/mL. The compounds were tested from 64 to 0.5 mg/L in two-fold serial diluted fashion with 2.5 μL of each concentration added to well of a 96-well round bottom microtiter plate. Later, 97.5 μL of bacterial suspension was added to each well containing either test compound or appropriate controls. […] The MIC is defined as the lowest concentration of the compound at which there is absence of visible growth. For each test compound, MIC determinations were carried out independently three times using duplicate samples.

HEK293T cells = assay type: cell-based, Human
Experimental: The control for the experiments was DMSO. HEK293T cells were cultivated in DMEM high glucose supplemented with 10% heat-inactivated fetal bovine serum, 100 U/mL of penicillin and streptomycin and maintained at a temperature of 37 °C with 5% CO2. Initially, 4000/well of cells were seeded into 96-well plates and incubated for 24 h before being exposed to compounds at concentrations ranging from 0.78, 50, and 100 µM. After 24 h of incubation, the compounds were added and serially diluted and incubated for 24 and 48 h at 37 °C 5% CO2, the cells were stained with alamar Blue, and the fluorescence excitation/ emission 540 nm/590 nm was measured using 96 well-plate reader. CC50 is defined as the lowest concentration of compound which leads to a 50% reduction in cell viability compared to untreated and DMSO control. Each experiment was repeated in triplicate.

[5] = system: methicillin-resistant S. aureus (MRSA) COL; test: MIC assay, MRSA COL; assay type: cell-based, Staphylococcus aureus; settings: MRSA COL
[6] = system: 36th Passage S.aureus ATCC 29213 in the presence of Pt-1; test: microbe, parasite or virus in culture; assay type: cell-based; settings: strain resulting from 36 passages
Experimental: The MICs of the passaged cultures were determined every 3 days and compared to that of wild type S. aureus ATCC 29213. MIC changes were recorded for 36 passages.

B. subtilis 168CA [7] = test: Propidium iodide pore assay; assay type: cell-based, Bacillus subtilis; settings: 3.125 µM Pt1, 25 µM Pt8; 30 and 60 min
Experimental: Propidium iodide staining was performed as described previously. B. subtilis 168CA was grown to an OD600 of 0.3 prior to splitting of the parent culture and treatment with the different antibiotics. After 15 and 45 min, samples were stained with 13.3 µg/mL propidium iodide for 15 min (total treatment times 30 and 60 min), and washed 3 times with phosphate-buffered saline (PBS). Fluorescence signals were recorded at an excitation wavelength of 535–15 nm and an emission wavelength of 617–20 nm in a BMG Clariostar Plus plate reader.

MRSA NRS 191 = test: Broth microdilution MIC, MRSA NRS 191; assay type: cell-based, S. aureus; settings: MRSA NRS 191
Experimental: as §3

E. coli ATCC 25922 = test: Broth microdilution MIC, E. coli ATCC 25922; assay type: cell-based
Experimental: as §3

MRSA NRS 192 = test: Broth microdilution MIC, MRSA NRS 192; assay type: cell-based, S. aureus; settings: MRSA NRS 192
Experimental: as §3

MRSA NRS 198 = test: Broth microdilution MIC, MRSA NRS 198; assay type: cell-based, S. aureus; settings: MRSA NRS 198
Experimental: as §3

E. coli tolC = system: E. coli tolC; design: method as in PMID 34018686; settings: efflux-impaired mutant; cited from earlier work
MSSA ATCC 29213 = test: Broth microdilution MIC, MSSA ATCC 29213; assay type: cell-based, S. aureus
Experimental: as §3

[8] = system: FtsZ (B. subtilis 2020, Pxyl-gfp-ftsZ); test: Localization of FtsZ (cell division reporter); assay type: cell-based, Bacillus subtilis; settings: 3.12 µM Pt1, 25 µM Pt8; 30 and 60 min
Experimental: as §1
Figure S8: Localization of FtsZ in B. subtilis 2020 (Pxyl-gfp-ftsZ). Cultures were treated with
as §2

[9] = system: RpoC-GFP (B. subtilis 1048); test: Localization of RpoC-GFP (transcription reporter); assay type: cell-based, Bacillus subtilis; settings: 3.12 µM Pt1, 25 µM Pt8; 30 and 60 min
Experimental: as §1
Figure S9: Localization of RpoC-GFP (B. subtilis 1048). Cultures were treated with 3.12 µM
as §2

Q: What does the source list for `C1=C\CC/C=C\CC/1.[Cl][Pt][Cl]` [Pt1]?
A: antibacterial activity (E. coli lpxC): inactive; HC50 [1]: >200 µM; MIC [2]: 3.13 to 6.25 µM; MIC fold change (increase) with scavenger (B. subtilis 168CA [3]; medium containing 150 mM thiourea (hydroxyl radical scavenger)): tenfold; MIC fold change (increase) with scavengers (B. subtilis 168CA [3]; medium containing both tiron and thiourea): 13 fold; MreB mobility [4]: neither Pt1 nor Pt8 affected MreB mobility; MIC (VRSA VRS 12): 0.67 to 1.34 µM; IC50 (HEK293T cells; 24 h): 74.1 ± 4.1 µM; IC50 (HEK293T cells; 48 h): 65.3 ± 2.7 µM; MIC [5]: 3.125 µM; cross-resistance to other antibiotics [6]: no cross-resistance was observed; propidium iodide (PI) uptake (B. subtilis 168CA [7]): Neither Pt1 nor Pt8 showed increased PI uptake; MIC (MRSA NRS 191): 0.25 µg/mL and 0.67 µM; MIC (E. coli ATCC 25922): > 64 µg/mL; MIC (MRSA NRS 192): 0.125 – 0.25 µg/mL and 0.33–0.67 µM; MIC (MRSA NRS 198): 0.25 µg/mL and 0.67 µM; antibacterial activity (E. coli tolC): inactive; MIC (MSSA ATCC 29213; MSSA ATCC 29213): 0.67 µM; MIC (MSSA ATCC 29213; MSSA ATCC 29213, Table S5): 0.25 µg/mL; MIC (MSSA ATCC 29213; S.aureus ATCC 29213 (unpassaged), Table S9): 0.0625 µg/mL; localization of FtsZ [8]: remained unaffected; localization of RpoC [9]: Neither protein showed a distinct phenotype
